Molecular target: T1, human PAD4 (Homo sapiens, UniProt Q9UM07)
T1 construct: human PAD4 (NM_012387), A2-P663, was PCR amplified; His-SUMO (N, cleaved yes); made in house; host or cells: E. coli BL21(DE3)
Experiment: In vitro PAD4 BAEE biochemical assay
Settings: BAEE substrate 3 mM, 5 nM PAD4, 2 mM calcium chloride; geometric mean of multiple experiments
Outline: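 Ammonia produced by BAEE deimination (3 mM substrate, 2 h, 25 °C) was read as fluorescent isoindole after o-phthalaldehyde/DTT derivatization, ex 405 nm/em 535 nm. Human PAD4 at 5 nM final, 2 mM calcium, pH 7.6 MOPS; compound preincubated 30 min. IC50s, normalized to BB-Cl-Amidine and DMSO controls, were geometric-mean averaged.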

T1 sequence (Q9UM07 2-663): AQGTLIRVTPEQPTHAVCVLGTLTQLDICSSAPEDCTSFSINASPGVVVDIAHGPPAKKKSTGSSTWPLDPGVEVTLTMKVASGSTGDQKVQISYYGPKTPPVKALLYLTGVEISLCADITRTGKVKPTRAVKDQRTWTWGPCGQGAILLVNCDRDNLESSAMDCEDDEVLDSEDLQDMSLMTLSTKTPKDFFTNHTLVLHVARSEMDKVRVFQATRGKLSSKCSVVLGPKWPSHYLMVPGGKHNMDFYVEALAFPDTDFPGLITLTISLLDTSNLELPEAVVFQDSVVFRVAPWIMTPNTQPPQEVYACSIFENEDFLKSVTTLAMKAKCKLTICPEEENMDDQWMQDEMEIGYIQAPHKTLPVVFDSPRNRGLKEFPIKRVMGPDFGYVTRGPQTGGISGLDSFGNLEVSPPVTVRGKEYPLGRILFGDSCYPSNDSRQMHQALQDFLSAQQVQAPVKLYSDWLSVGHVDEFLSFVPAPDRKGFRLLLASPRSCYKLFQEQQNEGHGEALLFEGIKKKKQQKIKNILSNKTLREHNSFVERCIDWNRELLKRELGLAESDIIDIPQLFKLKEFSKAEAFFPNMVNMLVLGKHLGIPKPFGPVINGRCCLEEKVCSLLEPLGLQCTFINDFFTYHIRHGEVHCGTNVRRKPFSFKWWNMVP

SMILES | IC50 [nM]
COc1cc(C(=O)N2[C@H]3CC[C@@H]2[C@H](N)C3)cc2nc(-c3cc4ccc5nc4n3CCCCCC[C@@H](OC)C(=O)N[C@@H]5C)c(C)n12 (single isomer, unassigned) [Example 334, (8−{R},11−{R})-17-[7-[(1−{R},2˜{R},4˜{S})-2-amino-7-azabicyclo[2.2.1]heptane-7-carbonyl]-5-methoxy-3-methyl-imidazo[1,2-a]pyridin-2-yl]-8-methoxy-11-methyl-1,10,19-triazatricyclo[10.5.2^{15,18}]nonadeca-12(19),13,15(18),16-tetraen-9-one] | 39
C[C@H]1NC(=O)c2ccc(Cl)nc2CCCCCn2c(-c3nc4cc(C(=O)N5C[C@H](N)[C@@H]6CC[C@H]5C6)cc(F)c4n3CC(C)(C)C)cc3ccc1nc32 [Example 947, (2~{R})-17-[5-[(1~{S},4~ {R},5~{R})-4-amino-2-azabicyclo[3.2.1]octane-2-carbonyl]-1-(2,2-dimethylpropyl)-7-fluoro-benzimidazol-2-yl]-8-chloro-2-methyl-3,9,16,22-tetrazatetracyclo [14.5.2.0^{5,10}.0^{19,23}] tricosa-1(22),5(10),6,8,17, 19(23),20-heptaen-4-one] | 92
COc1cc(C(=O)N2CC[C@@H](OC)[C@@H](N)C2)cc2nc(-c3cc4ccc5nc4n3CCCCCc3ccccc3C(=O)N(C)[C@@H]5C)n(C)c12 [Example 654, (2~{R})-17-[5-[(3~{S},4~{R})-3-amino-4-methoxy-piperidine-1-carbonyl]-7-methoxy-1-methyl-benzimidazol-2-yl]-2,3-dimethyl-3,16,22-triazatetracyclo[14.5.2.0^ {5,10).0^{19,23}] tricosa-1(22),5,7,9,17,19(23), 20-heptaen-4-one] | 51
COc1cc(C(=O)N2C[C@H](N)[C@@H]3CC[C@H]2C3)cc2nc(-c3cc4ccc5nc4n3CCCCCc3ccc(F)cc3C(=O)N[C@@H]5C)n(C3CC3)c12 [Example 953, (2~{R})-17-[5-[(1~{S},4~{R}, 5~{R})-4-amino-2-azabicyclo [3.2.1]octane-2-carbonyl]-1-cyclopropyl-7-methoxy-benzimidazol-2-yl]-7-fluoro-2-methyl-3,16,22-triazatetracyclo[14.5.2.0^ {5,10}.0^{19,23}]tricosa-1(22),5(10),6,8,17,19(23), 20-heptaen-4-one] | 68
C[C@H]1NC(=O)[C@@H]2C[C@H]2CCCCCn2c(-c3nc4cc(C(=O)N[C@H]5CNCC[C@@H]5F)c(F)cc4n3C3CC3)cc3ccc1nc32 [Example 182, 1-cyclopropyl-6-fluoro-~{N}-[(3~{S},4~{S})-4-fluoro-3-piperidyl]-2-[(2~{R},5~{R},7~{R})-2-methyl-4-oxo-3,13,19-triazatetracyclo[11.5.2.0^{5,7}.0^{16,20}]icosa-1(19),14,16(20),17-tetraen-14-yl]benzimidazole-5-carboxamide] | 31
COc1cc(C(=O)N2[C@H]3CC[C@@H]2[C@H](N)C3)cc2nc(-c3cc4ccc5nc4n3CCCCCCC(=O)Nc3ccccc3-5)n(C)c12 [Example 87, 17-[5-[(1~{R},2~{R},4~{S})-2-amino-7-azabicyclo[2.2.1]heptane-7-carbonyl]-7-methoxy-1-methyl-benzimidazol-2-yl]-8,16,22-triazatetracyclo[14.5.2.0^{2,7}.0^{19,23}] tricosa-1(22),2,4,6,17,19(23),20-heptaen-9-one] | 83
C[C@H]1NC(=O)C(C)(C)CCCCCCn2c(-c3nc4cc(C(=O)N[C@H]5CNCC[C@@H]5F)c(F)cc4n3C)cc3ccc1cc32 [Example 565, 6-fluoro-~{N}-[(3~{S}, 4~{S})-4-fluoro-3-piperidyl]-1-methyl-2-[(11~{R})-8,8,11-trimethyl-9-oxo-1,10-diazatricyclo[10.5.2.0^ {15,18}]nonadeca-12(19),13,15(18),16-tetraen-17-yl] benzimidazole-5-carboxamide] | 41
COc1cc(C(=O)N2CCC[C@@H](N)C2)cc2nc(-c3cc4ccc5nc4n3CCC/C=C/C[C@@](C)(C(F)(F)F)C(=O)N[C@@H]5C)n(C)c12 (single isomer, unassigned) [Example 2, (5˜{E},8˜{R},11˜{R})-17-[5-[(3˜{R})-3-aminopiperidine-1-carbonyl]-7-methoxy-1-methyl-benzimidazol-2-yl]-8,11-dimethyl-8-(trifluoromethyl)-1,10,19-triazatricyclo[10.5.2.0^{15,18}]nonadeca-5,12(19),13,15(18),16-pentaen-9-one] | 75

Stronger by IC50, values ahead:

IC50 [nM] | SMILES
30 | COc1cc(C(=O)N2C[C@H](N)[C@@H]3CC[C@H]2C3)cc2nc(-c3cc4ccc5nc4n3CCCCCc3ccc(F)cc3C(=O)N[C@@H]5C)n(C)c12 [Example 899, (2~{R})-17-[5-[(1~{S},4~{R}, 5~{R})-4-amino-2-azabicyclo [3.2.1]octane-2-carbonyl]-7-methoxy-1-methyl-benzimidazol-2-yl]-7-fluoro-2-methyl-3,16,22-triazatetracyclo [14.5.2.0^{5,10}.0^{19,23}] tricosa-1(22),5(10),6,8,17, 19(23),20-heptaen-4-one]
24 | COc1cc(C(=O)N2CCC[C@@H](N)[C@H]2C)cc2nc(-c3cc4ccc5nc4n3CCCCCc3nc4ccsc4cc3C(=O)N[C@@H]5C)n(C)c12 [Example 793, (2~{R})-20-[5-[(2~{R},3~{R})-3-amino-2-methyl-piperidine-1-carbonyl]-7-methoxy-1-methyl-benzimidazol-2-yl]-2-methyl-8-thia-3,12,19,25-tetrazapentacyclo[17.5.2.0^ {5,13}.0^{7,11}.0^{22,26}] hexacosa-1(24),5(13),6,9, 11,20,22,25-octaen-4-one]
23 | C[C@H]1NC(=O)[C@@H]2C[C@H]2CCCCCn2c(-c3nc4cc(C(=O)N[C@H]5CNCC[C@@H]5F)cnc4n3C3CC3)cc3ccc1nc32 [Example 573, 3-cyclopropyl-~{N}-[(3~ {S},4~{S})-4-fluoro-3-piperidyl]-2-[(2~{R},5~ {R},7~{R})-2-methyl-4-oxo-3,13,19-triazatetracyclo [11.5.2.0^{5,7}.0^{16,20}]icosa-1(19),14,16(20), 17-tetraen-14-yl]imidazo [4,5-b]pyridine-6-carboxamide]
19 | C[C@H]1NC(=O)[C@@H]2C[C@@]2(F)CCCCCn2c(-c3nc4cc(C(=O)N5C[C@H](N)[C@@H]6CC[C@H]5C6)cc(OC(F)(F)F)c4n3C)cc3ccc1nc32 [Example 715, (2~{R},5~{S},7~{S})-14-[5-[(1~{S},4~{R},5~{R})-4-amino-2-azabicyclo[3.2.1]octane-2-carbonyl]-1-methyl-7-(trifluoromethoxy)benzimidazol-2-yl]-7-fluoro-2-methyl-3,13,19-triazatetracyclo[11.5.2.0^ {5,7}.0^{16,20}]icosa-1(19), 14,16(20),17-tetraen-4-one]
16 | C[C@H]1NC(=O)[C@@H]2C[C@H]2CCCC(F)(F)Cn2c(-c3nc4cc(C(=O)N5C[C@H](N)[C@@H]6CC[C@H]5C6)ccc4n3C3CC3)cc3ccc1nc32 [Example 914, (2~{R},5~{R},7~{R})-14-[5-[(1~{S},4~{R},5~{R})-4-amino-2-azabicyclo[3.2.1]octane-2-carbonyl]-1-cyclopropyl-benzimidazol-2-yl]-11,11-difluoro-2-methyl-3,13,19-triazatetracyclo[11.5.2.0^ {5,7}.0^{16,20}]icosa-1(19), 14,16(20),17-tetraen-4-one]

Reference: US11976083B2, “Inhibitors of peptidylarginine deiminases” (Gilead Sciences, Inc., priority 2020, dated 2024)
